From paper PMC11979273, “A phase I study to evaluate the safety, tolerability, and pharmacokinetics of HEC113995PA·H2O, a novel dual-acting serotonergic antidepressant, in healthy subjects” (Frontiers in Pharmacology, 2025)
Read-outs that look alike come from different tables or passages of the source.

Experiments:
[1] = Single ascending-dose (SAD) study, plasma pharmacokinetics; type: in vivo, human; conditions: for Cmax / AUC(0-t) / k el / AUC(0-inf) / MRT / Vd/F / half-life / Tmax: both sexes, human
Experimental: The study comprised a total of 7 dose groups (2.5, 5, 10, 20, 40, 60, and 80 mg groups, respectively). The first dose group (2.5 mg) consisted of 8 subjects, with 6 receiving HEC113995PA·H2O and 2 receiving placebo. Dose groups 2–7 each included 10 subjects, with 8 subjects receiving HEC113995PA·H2O and 2 subjects receiving placebo. Male and female participants were randomly assigned to the groups. Serial blood samples were collected before and after drug administration to determine the plasma concentration of pharmacokinetics (PK) and to evaluate the pharmacokinetic characteristics. The time points of blood collection and safety evaluation of PK in the second to seventh dose groups were adjusted based on the results of the first dose group. Drug safety and tolerability were evaluated on day 2 and 4 in the first dose group and on day 4 and 7 in the second to seventh dose groups. The trial was conducted in a dose-escalation manner, with progression to the next dose arm only after the safety of the previous arm had been evaluated. In the fourth group (20 mg group), in addition to blood samples, urine and stool samples were also collected for in vivo drug metabolic transformation studies.
In the first dose group of single ascending-dose study, PK blood samples were collected at 0.5 h before administration and 0.5, 1, 1.5, 2, 2.5, 3, 4, 5, 6, 8, 10, 12, 24, 36, 48, and 72 h after administration. In other SAD groups, MAD groups and food effect study, PK blood samples were collected at 0.5 h before administration, and 1, 2, 3, 4, 5, 6, 7, 8, 10, 12, 24, 48, 72, 96, 120 and 144 h after administration. Approximately 4 mL of venous blood was obtained from each collection and placed in a vacuum collection vessel containing K2EDTA anticoagulant. The blood was centrifuged and packed according to the instruction provided by the Biological Sample Detection and Analysis Unit. Briefly, all samples were centrifuged at 4°C, 1,500 g for 10 min within 0.5 h after blood collection. After centrifugation, the plasma was aliquoted into two cryogenic storage tubes. The first tube (Tube A) contained at least 0.8 mL of plasma for analytical testing, and the remaining plasma is allocated into the backup tube (Tube B). The plasma samples were stored at −80°C within 1 h after aliquoting for further analysis.
The concentration of HEC113995PA·H2O in human plasma samples (K2EDTA) was quantitatively analyzed using the LC-MS/MS method. Plasma samples (50 μL) were processed using protein precipitation with 5 μL deuterated internal standard (HEC124659) and 100 μL acetonitrile. The Shimadzu LCMS-8060 system coupled with a GL Sciences Inc. InertSustain AQ-C18 HP column (50 × 2.1 mm, 3 μm) achieved chromatographic separation through gradient elution using 0.04% TFA aqueous solution (pH 2.1) and acetonitrile at 0.4 mL/min. ESI-positive mode detection employed optimized parameters: 300°C interface temperature, 250°C DL temperature, 3 L/min nebulizer gas, and 400°C heating block temperature.
Using WinNonlin 7.0 for non-compartmental analysis (NCA), pharmacokinetic (PK) parameters were meticulously calculated based on the actual sampling times for plasma, urine, and fecal samples from each subject post-administration. These parameters encompassed a comprehensive range, including the area under the concentration–time curve (AUC), AUC from time zero (pre-dose) to the time of the last measurable concentration (AUC0-t), and AUC from time zero (pre-dose) to infinity (AUC0-∞). Additionally, maximum observed plasma concentration (Cmax), time to achieve maximum plasma concentration (Tmax), terminal elimination half-life (t1/2), elimination rate constant (Ke), apparent volume of distribution (Vd/F), clearance rate (CL/F), and mean residence time (MRT) were also determined. The AUC0-t and AUC0-∞ values were computed using the linear trapezoidal rule method. Tmax and Cmax were ascertained based on the actual observed data. […]

[2] = Solubility in solvents; type: physicochemical
[3] = target: 5-HT transporter (Homo sapiens, UniProt P31645); test: In vitro affinity and antagonistic activity for the 5-HT transporter; type: binding; conditions: unpublished data
[4] = across single-dose groups 2.5–80 mg

5-HT transporter, sequence (P31645 whole entry, species assumed): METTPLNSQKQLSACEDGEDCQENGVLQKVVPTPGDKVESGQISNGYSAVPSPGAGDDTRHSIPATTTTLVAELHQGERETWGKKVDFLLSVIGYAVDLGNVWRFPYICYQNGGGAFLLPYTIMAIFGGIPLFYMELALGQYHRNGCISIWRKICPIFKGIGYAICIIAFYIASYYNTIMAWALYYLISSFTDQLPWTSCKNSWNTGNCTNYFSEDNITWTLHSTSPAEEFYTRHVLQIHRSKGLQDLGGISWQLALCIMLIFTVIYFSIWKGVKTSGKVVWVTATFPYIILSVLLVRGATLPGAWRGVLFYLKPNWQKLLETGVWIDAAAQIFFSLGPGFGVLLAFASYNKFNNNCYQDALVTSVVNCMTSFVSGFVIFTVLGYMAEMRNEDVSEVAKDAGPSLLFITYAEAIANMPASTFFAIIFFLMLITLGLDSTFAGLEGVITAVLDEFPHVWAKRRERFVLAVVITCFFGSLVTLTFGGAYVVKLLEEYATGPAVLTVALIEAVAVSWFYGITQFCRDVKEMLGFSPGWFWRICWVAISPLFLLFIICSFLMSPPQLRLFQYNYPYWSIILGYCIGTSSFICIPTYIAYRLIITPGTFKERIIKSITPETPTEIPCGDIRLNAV

Cc1nc(-c2cnc(N3CCN(CCCc4c[nH]c5ccc(C#N)cc45)CC3)nc2)sc1C(N)=O [HEC113995PA·H2O]
Cl/F ([1]; SAD single dose 2.5 mg, N = 6, mean (SD)): 12.03 (3.52) L/h
Cl/F ([1]; SAD single dose 5 mg, N = 8, mean (SD)): 10.94 (1.75) L/h
Cl/F ([1]; SAD single dose 10 mg, N = 8, mean (SD)): 12.65 (3.13) L/h
Cl/F ([1]; SAD single dose 20 mg, N = 8, mean (SD)): 14.53 (5.78) L/h
Cl/F ([1]; SAD single dose 40 mg, N = 8, mean (SD)): 14.14 (4.06) L/h
Cl/F ([1]; SAD single dose 60 mg, N = 8, mean (SD)): 15.07 (4.58) L/h
Cl/F ([1]; SAD single dose 80 mg, N = 8, mean (SD)): 14 (2.41) L/h
apparent clearance (CL/F), range of arithmetic means [1, 4]: 10.9380 to 15.0736 L/h
elimination rate constant (Kel), range of arithmetic means [1, 4]: 0.0187 to 0.0256 h⁻¹
Cmax ([1]; oral, SAD single dose 2.5 mg, N = 6, plasma, mean (SD), read-out: Cmax): 5.27 ng/mL
Cmax ([1]; oral, SAD single dose 5 mg, N = 8, plasma, mean (SD), read-out: Cmax): 14 ng/mL
Cmax ([1]; oral, SAD single dose 10 mg, N = 8, plasma, mean (SD), read-out: Cmax): 24.4 ng/mL
Cmax ([1]; oral, SAD single dose 20 mg, N = 8, plasma, mean (SD), read-out: Cmax): 40.6 ng/mL
Cmax ([1]; oral, SAD single dose 40 mg, N = 8, plasma, mean (SD), read-out: Cmax): 88.5 ng/mL
Cmax ([1]; oral, SAD single dose 60 mg, N = 8, plasma, mean (SD), read-out: Cmax): 149 ng/mL
Cmax ([1]; oral, SAD single dose 80 mg, N = 8, plasma, mean (SD), read-out: Cmax): 164 ng/mL
AUC(0-t) ([1]; plasma, oral, 2.5 mg, SAD single dose 2.5 mg, N = 6, mean (SD), read-out: AUC0-t): 177 ng·h/mL
AUC(0-t) ([1]; plasma, oral, 5 mg, SAD single dose 5 mg, N = 8, mean (SD), read-out: AUC0-t): 439 ng·h/mL
AUC(0-t) ([1]; plasma, oral, 10 mg, SAD single dose 10 mg, N = 8, mean (SD), read-out: AUC0-t): 801 ng·h/mL
AUC(0-t) ([1]; plasma, oral, 20 mg, SAD single dose 20 mg, N = 8, mean (SD), read-out: AUC0-t): 1450 ng·h/mL
AUC(0-t) ([1]; plasma, oral, 40 mg, SAD single dose 40 mg, N = 8, mean (SD), read-out: AUC0-t): 2910 ng·h/mL
AUC(0-t) ([1]; plasma, oral, 60 mg, SAD single dose 60 mg, N = 8, mean (SD), read-out: AUC0-t): 4100 ng·h/mL
AUC(0-t) ([1]; plasma, oral, 80 mg, SAD single dose 80 mg, N = 8, mean (SD), read-out: AUC0-t): 5650 ng·h/mL
k el ([1]; plasma, oral, SAD single dose 2.5 mg, N = 6, mean (SD)): 6.39e-06 s⁻¹
AUC(0-inf) ([1]; plasma, oral, SAD single dose 2.5 mg, N = 6, mean (SD), read-out: AUC0-∞): 220 ng·h/mL
MRT ([1]; plasma, oral, SAD single dose 2.5 mg, N = 6, mean (SD), read-out: MRT): 44.8 h
Vd/F ([1]; plasma, oral, SAD single dose 2.5 mg, N = 6, mean (SD), read-out: Vz/F): 518 L
half-life ([1]; plasma, oral, SAD single dose 2.5 mg, N = 6, mean (SD), read-out: t1/2 (converted)): 30.3 h
Tmax ([1]; plasma, oral, SAD single dose 2.5 mg, N = 6, median (min, max), read-out: Tmax): 6 h
k el ([1]; plasma, oral, SAD single dose 5 mg, N = 8, mean (SD)): 7.11e-06 s⁻¹
AUC(0-inf) ([1]; plasma, oral, SAD single dose 5 mg, N = 8, mean (SD), read-out: AUC0-∞): 467 ng·h/mL
MRT ([1]; plasma, oral, SAD single dose 5 mg, N = 8, mean (SD), read-out: MRT): 39.8 h
Vd/F ([1]; plasma, oral, SAD single dose 5 mg, N = 8, mean (SD), read-out: Vz/F): 430 L
half-life ([1]; plasma, oral, SAD single dose 5 mg, N = 8, mean (SD), read-out: t1/2 (converted)): 27.2 h
Tmax ([1]; plasma, oral, SAD single dose 5 mg, N = 8, median (min, max), read-out: Tmax): 5 h
k el ([1]; plasma, oral, SAD single dose 10 mg, N = 8, mean (SD)): 7.11e-06 s⁻¹
AUC(0-inf) ([1]; plasma, oral, SAD single dose 10 mg, N = 8, mean (SD), read-out: AUC0-∞): 832 ng·h/mL
MRT ([1]; plasma, oral, SAD single dose 10 mg, N = 8, mean (SD), read-out: MRT): 39.1 h
Vd/F ([1]; plasma, oral, SAD single dose 10 mg, N = 8, mean (SD), read-out: Vz/F): 494 L
half-life ([1]; plasma, oral, SAD single dose 10 mg, N = 8, mean (SD), read-out: t1/2 (converted)): 28 h
Tmax ([1]; plasma, oral, SAD single dose 10 mg, N = 8, median (min, max), read-out: Tmax): 6 h
k el ([1]; plasma, oral, SAD single dose 20 mg, N = 8, mean (SD)): 5.19e-06 s⁻¹
AUC(0-inf) ([1]; plasma, oral, SAD single dose 20 mg, N = 8, mean (SD), read-out: AUC0-∞): 1520 ng·h/mL
MRT ([1]; plasma, oral, SAD single dose 20 mg, N = 8, mean (SD), read-out: MRT): 42.2 h
Vd/F ([1]; plasma, oral, SAD single dose 20 mg, N = 8, mean (SD), read-out: Vz/F): 772 L
half-life ([1]; plasma, oral, SAD single dose 20 mg, N = 8, mean (SD), read-out: t1/2 (converted)): 38.6 h
Tmax ([1]; plasma, oral, SAD single dose 20 mg, N = 8, median (min, max), read-out: Tmax): 8 h
k el ([1]; plasma, oral, SAD single dose 40 mg, N = 8, mean (SD)): 6.08e-06 s⁻¹
AUC(0-inf) ([1]; plasma, oral, SAD single dose 40 mg, N = 8, mean (SD), read-out: AUC0-∞): 3010 ng·h/mL
MRT ([1]; plasma, oral, SAD single dose 40 mg, N = 8, mean (SD), read-out: MRT): 38.1 h
Vd/F ([1]; plasma, oral, SAD single dose 40 mg, N = 8, mean (SD), read-out: Vz/F): 661 L
half-life ([1]; plasma, oral, SAD single dose 40 mg, N = 8, mean (SD), read-out: t1/2 (converted)): 32.2 h
Tmax ([1]; plasma, oral, SAD single dose 40 mg, N = 8, median (min, max), read-out: Tmax): 5 h
k el ([1]; plasma, oral, SAD single dose 60 mg, N = 8, mean (SD)): 6.11e-06 s⁻¹
AUC(0-inf) ([1]; plasma, oral, SAD single dose 60 mg, N = 8, mean (SD), read-out: AUC0-∞): 4240 ng·h/mL
MRT ([1]; plasma, oral, SAD single dose 60 mg, N = 8, mean (SD), read-out: MRT): 35.3 h
Vd/F ([1]; plasma, oral, SAD single dose 60 mg, N = 8, mean (SD), read-out: Vz/F): 762 L
half-life ([1]; plasma, oral, SAD single dose 60 mg, N = 8, mean (SD), read-out: t1/2 (converted)): 36.6 h
Tmax ([1]; plasma, oral, SAD single dose 60 mg, N = 8, median (min, max), read-out: Tmax): 5.5 h
k el ([1]; plasma, oral, SAD single dose 80 mg, N = 8, mean (SD)): 6.08e-06 s⁻¹
AUC(0-inf) ([1]; plasma, oral, SAD single dose 80 mg, N = 8, mean (SD), read-out: AUC0-∞): 5870 ng·h/mL
MRT ([1]; plasma, oral, SAD single dose 80 mg, N = 8, mean (SD), read-out: MRT): 40.5 h
Vd/F ([1]; plasma, oral, SAD single dose 80 mg, N = 8, mean (SD), read-out: Vz/F): 666 L
half-life ([1]; plasma, oral, SAD single dose 80 mg, N = 8, mean (SD), read-out: t1/2 (converted)): 33.4 h
Tmax ([1]; plasma, oral, SAD single dose 80 mg, N = 8, median (min, max), read-out: Tmax): 6 h
AUC(0-t) ([1]; plasma, oral, across single-dose groups 2.5–80 mg, read-out: AUC0-t, geometric mean range): 172 to 5580 ng·h/mL
AUC(0-inf) ([1]; plasma, oral, across single-dose groups 2.5–80 mg, read-out: AUC0-∞, geometric mean range): 214 to 5790 ng·h/mL
AUC(0-t) ([1]; plasma, oral, across single-dose groups 2.5–80 mg, read-out: AUC0–24h, geometric mean range): 88.4 to 2680 ng·h/mL
Cmax ([1]; plasma, oral, across single-dose groups 2.5–80 mg, read-out: Cmax, geometric mean range): 5.1 to 157 ng/mL
Vd/F ([1]; plasma, oral, across single-dose groups 2.5–80 mg, read-out: apparent volume of distribution (Vz/F), range of arithmetic means): 430 to 772 L
half-life ([1]; plasma, oral, across single-dose groups 2.5–80 mg, read-out: half-life (t1/2), range of arithmetic means): 27.2 to 38.6 h
MRT ([1]; plasma, oral, across single-dose groups 2.5–80 mg, read-out: mean residence time (MRT), range of arithmetic means): 35.3 to 44.8 h
Tmax ([1]; plasma, oral, across single-dose groups 2.5–80 mg, read-out: median time to peak plasma concentration (Tmax), range): 5 to 8 h
AUC(0-inf) ([1]; plasma, po, SAD single dose 20 mg, N = 8, mean (SD), read-out: AUC0-∞): 1520 ng·h/mL
Cmax higher than Vilazodone ([1]; equivalent 20 mg doses (40.6 vs. 28.5 ng/mL)): 42%
AUC0-∞ greater than Vilazodone ([1]; equivalent 20 mg doses (1,519.6 vs. 502 h ng/mL)): threefold greater
solubility ([2]; 95% ethanol): practically insoluble
solubility ([2]; N,N-dimethylacetamide (DMA)): soluble
solubility ([2]; acetone): practically insoluble
solubility ([2]; acetonitrile): practically insoluble
solubility ([2]; dichloromethane): practically insoluble
solubility ([2]; dimethyl sulfoxide (DMSO)): readily soluble
solubility ([2]; methanol): practically insoluble
solubility ([2]; water): practically insoluble
affinity and antagonistic activity for the 5-HT transporter [3]: at the nanomolar level
